{"source": "patent US12251422B2", "about": "“Compositions and methods for treating neurological and other disorders” (Rush University Medical Center, priority 2018, dated 2025)", "key": {"[1]": {"target": "T1, interaction between TLR4 and MyD88 (Mus musculus, UniProt Q9QUK6)", "T1 construct": "endogenous in cells; host or cells: BV-2 microglial cells", "T1 sequence (Q9QUK6 26-835)": "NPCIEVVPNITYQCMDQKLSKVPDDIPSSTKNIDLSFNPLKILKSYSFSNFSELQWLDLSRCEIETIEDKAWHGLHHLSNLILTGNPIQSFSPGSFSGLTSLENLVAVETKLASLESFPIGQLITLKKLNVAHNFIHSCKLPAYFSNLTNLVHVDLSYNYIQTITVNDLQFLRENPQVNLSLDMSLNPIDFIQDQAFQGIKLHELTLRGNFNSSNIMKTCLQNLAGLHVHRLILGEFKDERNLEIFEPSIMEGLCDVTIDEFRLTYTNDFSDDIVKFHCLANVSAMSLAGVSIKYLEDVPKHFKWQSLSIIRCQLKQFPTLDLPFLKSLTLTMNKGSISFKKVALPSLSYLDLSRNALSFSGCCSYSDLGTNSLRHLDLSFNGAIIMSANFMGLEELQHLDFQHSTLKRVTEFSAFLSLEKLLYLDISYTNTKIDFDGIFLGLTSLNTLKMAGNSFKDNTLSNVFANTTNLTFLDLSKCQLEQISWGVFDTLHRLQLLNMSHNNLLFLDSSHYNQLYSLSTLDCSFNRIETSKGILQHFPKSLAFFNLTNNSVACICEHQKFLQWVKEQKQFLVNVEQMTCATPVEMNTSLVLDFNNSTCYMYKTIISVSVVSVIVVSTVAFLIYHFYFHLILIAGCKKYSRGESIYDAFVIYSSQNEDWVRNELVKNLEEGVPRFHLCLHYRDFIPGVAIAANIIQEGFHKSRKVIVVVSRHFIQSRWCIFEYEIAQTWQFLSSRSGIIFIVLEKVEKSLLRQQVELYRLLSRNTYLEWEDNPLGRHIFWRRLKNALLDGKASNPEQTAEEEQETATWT", "experiment": "MyD88 immunoprecipitation / TLR4 western blot in BV-2 microglial cells", "assay_type": "cell-based", "settings": "BV-2 cells, peptide preincubated 1 h, LPS for 1 h, serum-free", "protocol": "FIG. 3(A-L). Selective disruption of TLR2 and MyD88 interaction by wtTIDM. In silico analyses of interactions of wtTIDM with TLR1, TLR4, TLR5, TLR6, TLR7, and TLR9. A rigid body interaction analyses were performed in pydock in silico analysis tool. […] G) BV-2 microglial cells preincubated with WtTIDM and mTIDM peptides for 1 h were stimulated with 1 μM fibrillar Aβ1-42 under serum-free condition. After 1 h, cellular extracts were immunoprecipitated with anti-MyD88 antibody followed by western blot of immunoprecipitates for TLR2. As control, cellular extracts were immunoprecipitated with normal IgG. Input was also immunoblotted with TLR2 and MyD88. H) Bands were scanned and values (TLR2/Input) presented as relative to control (n=2 replicates/condition in 3 independent experiments). Results were analyzed by two-sample t-tests. I) BV-2 microglial cells preincubated with wtTIDM and mTIDM peptides for 1 h were stimulated with LPS under serum-free condition. After 1 h, cellular extracts were immunoprecipitated with anti-MyD88 antibody followed by western blot of immunoprecipitates for TLR4. As control, cellular extracts were immunoprecipitated with normal IgG. Input was also immunoblotted with TLR4 and My D88. […] Results were analyzed by two-sample t-tests. […] Results were analyzed by two-sample t-tests."}, "Tg-Tlr2−/− mice": {"tested_on": "Tg-Tlr2−/− mice", "experiment": "Plaques and memory in 5×FAD mice null for Tlr2 (Tg-Tlr2−/−)", "assay_type": "in vivo, mouse", "settings": "0.1 mg/kg body wt/2 d intranasal, 30 d", "protocol": "FIG. 24 (A-H). […] A) Tlr2−/− mice were bred with Tg (5×FAD mice) and representative PCR of Tlr2, App695 and Psen1 transgene DNA expression is shown for 6-month old non-Tg, Tg (5×FAD), Tg-Tlr2−/− (F7), and Tlr2−/− mice. Average body weight (B) and wet brain weight (C) of non-Tg, Tg, Tg-Tlr2−/−, and Tlr2−/− mice. For wet brain weight, the olfactory lobes and brainstem were removed. […] After 30 d of treatment, hippocampal sections were immunolabeled with 6E10 mAb (D). […] Mice were tested for Barnes maze (F, track plot; G, latency; H, number of errors made). Four mice (n=4) were used in each group. NS, not significant by two-sample t-tests."}, "5×FAD Tg mice": {"tested_on": "5×FAD Tg mice", "experiment": "Glial activation and NF-κB in hippocampus of 5×FAD Tg mice", "assay_type": "in vivo, mouse", "settings": "0.1 mg/kg body wt/2 d intranasal, 30 d", "source_text": "FIG. 5 (A-Q). […] Actin was run as loading control. […] M) Hippocampal sections were immunolabeled with 82E1 mAb. […] Arrowhead indicates 4 kDa Aβ band.\nFIG. 18 (A-B). After intranasal delivery, wtTIDM peptide suppresses the activation of NF-κB in the hippocampus of Tg mice. […] After 30 d of treatment, hippocampal extracts of all groups of mice were immunoblotted for phospho-p65 (A). Actin was run as loading control.\nFIG. 19. Intranasal delivery of wtTIDM, but not mTIDM, peptide suppresses microglial expression of iNOS in the hippocampus of Tg mice. […] After 30 d of treatment, mice were sacrificed and hippocampal sections were double-labeled for Iba-1 and iNOS. Results represent analysis of two sections from each of six different mice per group.\nB6SJL-Tg (APPSwFlLon,PSEN1*M146L*L286V) 6799Vas/J transgenic (5×FAD or termed here as Tg) mice were purchased from Jackson Laboratories (Bar Harbor, ME). […] Briefly, TIDM peptides were dissolved in 5 μl normal saline, mice were hold in supine position and saline was delivered into one nostril using a pipetman.\nMice were anesthetized with ketamine-xylazine injectables and perfused with PBS and then with 4% (w/v) paraformaldehyde in PBS followed by dissection of the brain from each mouse for immunofluorescence microscopy (23, 59). […] The samples were mounted and observed under an Olympus IX81 fluorescence microscope. […]"}}, "data": [{"smiles": "CC[C@H](C)[C@H](NC(=O)[C@H](CCCCN)NC(=O)[C@@H](NC(=O)[C@H](CCC(N)=O)NC(=O)[C@H](CCCNC(=N)N)NC(=O)[C@@H](N)CC(=O)O)[C@@H](C)CC)C(=O)N[C@@H](Cc1c[nH]c2ccccc12)C(=O)N[C@@H](Cc1ccccc1)C(=O)N[C@@H](CCC(N)=O)C(=O)N[C@@H](CC(N)=O)C(=O)N[C@@H](CCCNC(=N)N)C(=O)N[C@@H](CCCNC(=N)N)C(=O)N[C@@H](CCSC)C(=O)N[C@@H](CCCCN)C(=O)N[C@@H](Cc1c[nH]c2ccccc12)C(=O)N[C@@H](CCCCN)C(=O)N[C@@H](CCCCN)C(=O)N1CCC[C@H]1C(=O)NCC(=O)N[C@@H](C)C(=O)N[C@@H](Cc1c[nH]cn1)C(=O)N[C@@H](CCC(N)=O)C(=O)N[C@@H](CCCCN)C(=O)O", "note": "[wtTIDM, drqikiwfqnrrmkwkkPGAHQK]", "values": [{"measurement": "effect on LPS-increased interaction between TLR4 and MyD88", "setting": "[1]", "result": "had no effect"}, {"measurement": "reduction of plaque load and improvement of spatial learning and memory in Tg-Tlr2−/− mice", "setting": "Tg-Tlr2−/− mice", "result": "remained unable to do so"}, {"measurement": "Iba-1 and phospho-p65 in the hippocampus", "setting": "5×FAD Tg mice", "result": "suppression"}, {"measurement": "expression of iNOS in the hippocampus", "setting": "5×FAD Tg mice", "result": "suppressed"}]}]}
